Where two headings read alike, the source gives them in different places.
What was measured:
Luciferase = assay: luciferase assay without PKA (Luciferase Only); format: biochemical
Excerpt: . Therefore, a competitive kinetic study was further conducted to investigate how 1 interacted with the PKA protein. […]. Thus, all the results supported that 1 was likely to function as an ATP-competitive inhibitor by direct interacting with the PKA catalytic unit (see FIGS. 2A-2B).

CLK1 = molecular target: T1, CLK1 (Homo sapiens, UniProt P49759); assay: HOTSPOT radiometric kinase assay; format: biochemical; conditions: 2 μM, 10 μM ATP
T1 construct: purchased Reaction Biology Corp

IRAK2 = molecular target: T2, IRAK2 (Homo sapiens, UniProt O43187); assay: HOTSPOT radiometric kinase assay; format: biochemical; conditions: 10 μM ATP
T2 construct: purchased Reaction Biology Corp

PKCγ = molecular target: T3, PKCγ (Homo sapiens, UniProt P05129); assay: HOTSPOT radiometric kinase assay; format: biochemical
T3 construct: purchased Reaction Biology Corp

PKCε = molecular target: T4, PKCε (Homo sapiens, UniProt Q02156); assay: HOTSPOT radiometric kinase assay; format: biochemical; conditions: 10 μM ATP
T4 construct: purchased Reaction Biology Corp

STK33 = molecular target: T5, STK33 (Homo sapiens, UniProt Q9BYT3); assay: HOTSPOT radiometric kinase assay; format: biochemical; conditions: 10 μM ATP
T5 construct: purchased Reaction Biology Corp

DYRK1B = DYRK1B (Homo sapiens, UniProt Q9Y463); assay: HOTSPOT radiometric kinase assay; format: biochemical
Chain of DYRK1B (Q9Y463 whole entry): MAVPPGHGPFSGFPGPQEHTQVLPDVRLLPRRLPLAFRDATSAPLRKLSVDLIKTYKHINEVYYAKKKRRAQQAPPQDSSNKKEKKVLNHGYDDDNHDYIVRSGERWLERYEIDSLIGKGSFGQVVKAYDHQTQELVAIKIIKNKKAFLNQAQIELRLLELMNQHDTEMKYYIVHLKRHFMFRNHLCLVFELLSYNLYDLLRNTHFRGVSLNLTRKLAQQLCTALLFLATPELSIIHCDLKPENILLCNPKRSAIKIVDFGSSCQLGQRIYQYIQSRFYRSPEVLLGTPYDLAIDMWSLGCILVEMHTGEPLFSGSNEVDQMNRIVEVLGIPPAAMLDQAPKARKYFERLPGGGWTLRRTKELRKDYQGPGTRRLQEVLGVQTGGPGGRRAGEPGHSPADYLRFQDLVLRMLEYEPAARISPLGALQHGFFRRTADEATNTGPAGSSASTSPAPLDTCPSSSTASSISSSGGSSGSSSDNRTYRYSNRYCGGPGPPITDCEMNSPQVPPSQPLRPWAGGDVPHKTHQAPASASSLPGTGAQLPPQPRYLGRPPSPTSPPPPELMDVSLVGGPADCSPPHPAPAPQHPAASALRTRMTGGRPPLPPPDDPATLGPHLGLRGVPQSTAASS

FLT3 = molecular target: T6, FLT3 (Homo sapiens, UniProt P36888); assay: HOTSPOT radiometric kinase assay; format: biochemical
T6 construct: purchased Reaction Biology Corp

MPSK1 = molecular target: T7, MPSK1 (Homo sapiens, UniProt O75716); assay: HOTSPOT radiometric kinase assay; format: biochemical; conditions: 10 μM ATP
T7 construct: purchased Reaction Biology Corp

RAF1 = molecular target: T8, RAF1 (Homo sapiens, UniProt P04049, Y340D/Y341D); assay: HOTSPOT radiometric kinase assay; format: biochemical; conditions: 10 μM ATP
T8 construct: purchased Reaction Biology Corp

BMPR2 = molecular target: T9, BMPR2 (Homo sapiens, UniProt Q13873); assay: HOTSPOT radiometric kinase assay; format: biochemical; conditions: 10 μM ATP
T9 construct: purchased Reaction Biology Corp

DYRK2 = molecular target: T10, DYRK2 (Homo sapiens, UniProt Q92630); assay: HOTSPOT radiometric kinase assay; format: biochemical
T10 construct: purchased Reaction Biology Corp
T10 sequence (Q92630 1-601): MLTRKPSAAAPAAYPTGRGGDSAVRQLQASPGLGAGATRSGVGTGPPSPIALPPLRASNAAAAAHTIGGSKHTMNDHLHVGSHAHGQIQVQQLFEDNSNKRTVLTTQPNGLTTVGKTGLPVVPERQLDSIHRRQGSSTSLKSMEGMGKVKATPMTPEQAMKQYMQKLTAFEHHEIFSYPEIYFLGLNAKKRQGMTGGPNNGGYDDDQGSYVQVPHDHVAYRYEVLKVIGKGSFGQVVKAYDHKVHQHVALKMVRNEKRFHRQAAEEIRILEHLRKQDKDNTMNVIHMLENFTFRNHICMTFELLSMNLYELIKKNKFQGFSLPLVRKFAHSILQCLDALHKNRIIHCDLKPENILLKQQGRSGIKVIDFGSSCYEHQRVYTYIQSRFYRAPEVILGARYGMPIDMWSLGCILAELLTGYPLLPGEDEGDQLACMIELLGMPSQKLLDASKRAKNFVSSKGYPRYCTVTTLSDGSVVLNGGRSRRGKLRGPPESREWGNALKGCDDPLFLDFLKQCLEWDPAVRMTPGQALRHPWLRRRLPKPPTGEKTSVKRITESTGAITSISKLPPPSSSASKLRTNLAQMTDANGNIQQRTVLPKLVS

ROCK2 = molecular target: T11, ROCK2 (Homo sapiens, UniProt O75116); assay: HOTSPOT radiometric kinase assay; format: biochemical; conditions: 10 μM ATP
T11 construct: purchased Reaction Biology Corp
T11 sequence (O75116 whole entry): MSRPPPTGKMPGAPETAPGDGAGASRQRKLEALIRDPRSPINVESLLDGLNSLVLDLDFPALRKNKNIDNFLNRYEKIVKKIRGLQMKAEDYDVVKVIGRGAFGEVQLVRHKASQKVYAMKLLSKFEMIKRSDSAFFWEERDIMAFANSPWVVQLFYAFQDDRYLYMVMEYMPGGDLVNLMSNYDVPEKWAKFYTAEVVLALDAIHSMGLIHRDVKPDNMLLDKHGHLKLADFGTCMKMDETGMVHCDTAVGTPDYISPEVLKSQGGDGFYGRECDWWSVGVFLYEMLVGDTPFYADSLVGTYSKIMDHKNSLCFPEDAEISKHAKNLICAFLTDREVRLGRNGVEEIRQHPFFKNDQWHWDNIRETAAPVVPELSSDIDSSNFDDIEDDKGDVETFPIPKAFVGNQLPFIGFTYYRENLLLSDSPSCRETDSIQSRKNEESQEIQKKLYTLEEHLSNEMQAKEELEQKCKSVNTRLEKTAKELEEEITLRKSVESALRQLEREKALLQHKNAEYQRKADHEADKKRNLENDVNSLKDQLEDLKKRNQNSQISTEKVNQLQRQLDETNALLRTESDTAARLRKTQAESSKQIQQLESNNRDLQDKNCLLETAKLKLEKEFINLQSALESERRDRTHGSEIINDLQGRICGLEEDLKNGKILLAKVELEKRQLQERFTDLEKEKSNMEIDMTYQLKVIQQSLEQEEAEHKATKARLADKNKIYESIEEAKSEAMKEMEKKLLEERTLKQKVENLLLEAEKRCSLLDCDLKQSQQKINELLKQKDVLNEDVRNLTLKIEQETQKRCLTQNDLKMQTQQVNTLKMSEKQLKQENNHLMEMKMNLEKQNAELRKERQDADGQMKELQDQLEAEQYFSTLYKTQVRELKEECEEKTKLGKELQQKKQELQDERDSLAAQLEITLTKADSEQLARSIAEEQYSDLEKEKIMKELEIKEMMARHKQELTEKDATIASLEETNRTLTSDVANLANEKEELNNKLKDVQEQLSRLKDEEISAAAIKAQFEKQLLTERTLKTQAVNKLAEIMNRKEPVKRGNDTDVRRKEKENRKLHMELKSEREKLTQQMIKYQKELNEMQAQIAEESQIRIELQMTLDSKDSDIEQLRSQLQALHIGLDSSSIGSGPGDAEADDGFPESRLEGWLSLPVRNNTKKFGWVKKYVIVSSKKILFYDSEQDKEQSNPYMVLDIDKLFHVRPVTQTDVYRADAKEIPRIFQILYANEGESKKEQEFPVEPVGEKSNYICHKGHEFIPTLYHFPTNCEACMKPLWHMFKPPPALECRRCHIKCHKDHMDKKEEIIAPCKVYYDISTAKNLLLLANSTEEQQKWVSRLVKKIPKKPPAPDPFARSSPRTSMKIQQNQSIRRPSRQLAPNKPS

PKN1 = molecular target: T12, PKN1 (Homo sapiens, UniProt Q16512); assay: HOTSPOT radiometric kinase assay; format: biochemical; conditions: 10 μM ATP
T12 construct: purchased Reaction Biology Corp

PKN3 = molecular target: T13, PKN3 (Homo sapiens, UniProt Q6P5Z2); assay: HOTSPOT radiometric kinase assay; format: biochemical; conditions: 10 μM ATP
T13 construct: purchased Reaction Biology Corp

PKCη = molecular target: T14, PKCη (Homo sapiens, UniProt P24723); assay: HOTSPOT radiometric kinase assay; format: biochemical
T14 construct: purchased Reaction Biology Corp
T14 sequence (P24723 whole entry): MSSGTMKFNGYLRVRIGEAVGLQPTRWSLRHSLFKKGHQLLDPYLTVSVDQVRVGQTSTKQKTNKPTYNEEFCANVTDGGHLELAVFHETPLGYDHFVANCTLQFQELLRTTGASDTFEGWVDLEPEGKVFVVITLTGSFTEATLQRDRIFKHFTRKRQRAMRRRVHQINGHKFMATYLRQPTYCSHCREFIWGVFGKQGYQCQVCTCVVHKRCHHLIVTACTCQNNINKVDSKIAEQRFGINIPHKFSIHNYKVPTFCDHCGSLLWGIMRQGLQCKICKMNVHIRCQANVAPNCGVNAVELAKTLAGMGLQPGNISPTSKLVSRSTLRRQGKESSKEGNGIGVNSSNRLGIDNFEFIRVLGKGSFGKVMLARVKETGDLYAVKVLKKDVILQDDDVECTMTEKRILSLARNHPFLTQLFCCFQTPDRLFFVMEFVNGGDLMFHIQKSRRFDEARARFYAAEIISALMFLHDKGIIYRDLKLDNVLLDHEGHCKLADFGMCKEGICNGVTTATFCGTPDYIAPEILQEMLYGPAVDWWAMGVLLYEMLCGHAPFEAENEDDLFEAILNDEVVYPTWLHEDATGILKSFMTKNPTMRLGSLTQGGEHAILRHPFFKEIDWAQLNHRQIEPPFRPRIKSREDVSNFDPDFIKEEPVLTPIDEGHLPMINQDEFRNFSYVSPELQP

P70S6K = molecular target: T15, P70S6K (Homo sapiens, UniProt P23443); assay: HOTSPOT radiometric kinase assay; format: biochemical; conditions: 10 μM ATP
T15 construct: purchased Reaction Biology Corp

RSK1 = molecular target: T16, RSK1 (Homo sapiens, UniProt Q15418); assay: HOTSPOT radiometric kinase assay; format: biochemical; conditions: 10 μM ATP
T16 construct: purchased Reaction Biology Corp
T16 sequence (Q15418 whole entry): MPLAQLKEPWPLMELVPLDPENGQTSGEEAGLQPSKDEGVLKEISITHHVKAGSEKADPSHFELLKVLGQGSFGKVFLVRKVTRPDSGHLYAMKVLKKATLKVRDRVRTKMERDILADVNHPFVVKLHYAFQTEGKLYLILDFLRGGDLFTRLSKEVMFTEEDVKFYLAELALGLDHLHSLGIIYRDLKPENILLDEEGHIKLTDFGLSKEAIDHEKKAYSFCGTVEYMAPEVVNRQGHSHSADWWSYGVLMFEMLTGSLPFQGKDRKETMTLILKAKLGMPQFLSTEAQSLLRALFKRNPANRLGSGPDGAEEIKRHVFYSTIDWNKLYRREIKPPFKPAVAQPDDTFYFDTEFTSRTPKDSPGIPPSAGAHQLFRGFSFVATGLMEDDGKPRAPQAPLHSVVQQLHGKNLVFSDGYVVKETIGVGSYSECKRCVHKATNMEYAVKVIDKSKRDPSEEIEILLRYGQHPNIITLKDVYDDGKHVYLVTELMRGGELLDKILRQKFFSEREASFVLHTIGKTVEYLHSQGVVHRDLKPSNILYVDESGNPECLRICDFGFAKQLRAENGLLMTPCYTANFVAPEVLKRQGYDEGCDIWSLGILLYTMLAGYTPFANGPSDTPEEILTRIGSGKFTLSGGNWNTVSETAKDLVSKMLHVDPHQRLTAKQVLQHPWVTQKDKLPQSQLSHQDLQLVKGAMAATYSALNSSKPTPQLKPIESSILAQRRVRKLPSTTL

BRAF = molecular target: T17, BRAF (Homo sapiens, UniProt P15056); assay: HOTSPOT radiometric kinase assay; format: biochemical; conditions: 10 μM ATP
T17 construct: purchased Reaction Biology Corp

PKCδ = molecular target: T18, PKCδ (Homo sapiens, UniProt Q05655); assay: HOTSPOT radiometric kinase assay; format: biochemical
T18 construct: purchased Reaction Biology Corp
T18 sequence (Q05655 whole entry): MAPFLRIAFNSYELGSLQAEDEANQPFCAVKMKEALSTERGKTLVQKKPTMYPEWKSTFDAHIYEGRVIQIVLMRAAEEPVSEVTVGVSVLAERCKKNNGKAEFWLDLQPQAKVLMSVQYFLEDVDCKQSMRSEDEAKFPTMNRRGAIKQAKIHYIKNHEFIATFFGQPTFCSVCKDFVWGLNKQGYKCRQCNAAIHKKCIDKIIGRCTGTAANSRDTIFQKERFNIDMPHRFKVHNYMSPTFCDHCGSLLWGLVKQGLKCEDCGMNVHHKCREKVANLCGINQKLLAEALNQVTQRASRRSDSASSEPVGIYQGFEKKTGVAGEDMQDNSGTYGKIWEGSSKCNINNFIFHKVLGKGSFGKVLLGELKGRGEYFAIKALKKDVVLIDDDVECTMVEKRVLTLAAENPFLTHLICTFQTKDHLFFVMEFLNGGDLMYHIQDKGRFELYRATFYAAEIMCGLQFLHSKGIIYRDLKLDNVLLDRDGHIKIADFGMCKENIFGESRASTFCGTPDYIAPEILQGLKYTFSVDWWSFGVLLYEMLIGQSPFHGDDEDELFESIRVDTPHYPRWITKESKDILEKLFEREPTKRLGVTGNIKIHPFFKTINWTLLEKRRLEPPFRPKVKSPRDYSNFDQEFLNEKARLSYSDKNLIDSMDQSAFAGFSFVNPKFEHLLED

RSK2 = molecular target: T19, RSK2 (Homo sapiens, UniProt P51812); assay: HOTSPOT radiometric kinase assay; format: biochemical; conditions: 10 μM ATP
T19 construct: purchased Reaction Biology Corp

ERBB2/HER2 = ERBB2/HER2 (Homo sapiens, UniProt P04626); assay: HOTSPOT radiometric kinase assay
FLT1/VEGFR1 = FLT1/VEGFR1 (Homo sapiens, UniProt P17948); assay: HOTSPOT radiometric kinase assay
PKCα = PKCα (Homo sapiens, UniProt P17252); assay: HOTSPOT radiometric kinase assay

`Cn1cncc1C1=CN(c2ncnc3nc[nH]c23)CCS1` [Compound 1, Aplithianine A] was tested, and the “activity when PKA was absent in the assay” value (Luciferase) was “no activity was observed”, the inhibition at 2 µM (CLK1) was 97.3% and the inhibition at 0.05 µM (IRAK2; 50 nM) was 30.7%. It also gave an inhibition at 2 µM (IRAK2; 2 μM) of 85%, an inhibition at 0.05 µM (PKCγ; 50 nM, 10 μM ATP) of 30.5% and an inhibition at 2 µM (PKCγ; 2 μM, 10 μM ATP) of 92.8%. The IC50 (PKCγ; 10 μM ATP, read-out: PKCγ IC50) was 234 nM, the “PKCg Differential (as compared to PKG1a)” value (PKCγ; IC50 (kinase)/IC50 (PKG1a)) was 13.99 and the IC50 (PKCγ; Table 4 dose-response, read-out: PKCg IC50 Values) was 159 nM. The inhibition at 0.05 µM (PKCε; 50 nM) was 25.8%, the inhibition at 2 µM (PKCε; 2 μM) was 92.7% and the inhibition at 0.05 µM (STK33; 50 nM) was 23.6%. It also gave an inhibition at 2 µM (STK33; 2 μM) of 80.5%, an inhibition at 0.05 µM (DYRK1B; 50 nM, 10 μM ATP) of 22.7% and an inhibition at 2 µM (DYRK1B; 2 μM, 10 μM ATP) of 95.3%. The IC50 (DYRK1B; 10 μM ATP, read-out: DYRK1B IC50) was 134 nM, the “DYRK1B Differential (as compared to PKG1a)” value (DYRK1B; IC50 (kinase)/IC50 (PKG1a)) was 11.87 and the IC50 (DYRK1B; Table 4 dose-response, read-out: DYRK1B IC50 Values) was 135 nM. The inhibition at 0.05 µM (FLT3; 50 nM, 10 μM ATP) was 22.2%, the inhibition at 2 µM (FLT3; read-out: FLT3 % inhibition) was 88.1% and the inhibition at 0.05 µM (MPSK1; 50 nM) was 22%. It also gave an inhibition at 2 µM (MPSK1; 2 μM) of 49.5%, an inhibition at 0.05 µM (RAF1; 50 nM) of 21.6% and an inhibition at 2 µM (RAF1; 2 μM) of 47%. The inhibition at 0.05 µM (BMPR2; 50 nM) was 21.3%, the inhibition at 2 µM (BMPR2; 2 μM) was 74% and the inhibition at 0.05 µM (DYRK2; 50 nM, 10 μM ATP) was 20.6%. For the same compound, the inhibition at 2 µM (DYRK2; 2 μM, 10 μM ATP) was 91.2%, the IC50 (DYRK2; 10 μM ATP, read-out: DYRK2 IC50) was 142 nM and the “DYRK2 Differential (as compared to PKG1a)” value (DYRK2; IC50 (kinase)/IC50 (PKG1a)) was 13.27. For the same compound, the IC50 (DYRK2; Table 4 dose-response, read-out: DYRK2 IC50 Values) was 151 nM, the inhibition at 0.05 µM (ROCK2; 50 nM) was 19.6% and the inhibition at 2 µM (ROCK2; 2 μM) was 93.3%. It also gave an inhibition at 0.05 µM (PKN1; 50 nM) of 18.8%, an inhibition at 2 µM (PKN1; 2 μM) of 87.7% and an inhibition at 0.05 µM (PKN3; 50 nM) of 18.6%. For the same compound, the inhibition at 2 µM (PKN3; 2 μM) was 80.4%, the inhibition at 0.05 µM (PKCη; 50 nM, 10 μM ATP) was 15.8% and the inhibition at 2 µM (PKCη; 2 μM, 10 μM ATP) was 83.6%. The IC50 (PKCη; 10 μM ATP, read-out: PKCη IC50) was 202 nM, the “PKCeta Differential (as compared to PKG1a)” value (PKCη; IC50 (kinase)/IC50 (PKG1a)) was 16.08 and the IC50 (PKCη; Table 4 dose-response, read-out: PKCeta IC50 Values) was 183 nM. For the same compound, the inhibition at 0.05 µM (P70S6K; 50 nM) was 14%, the inhibition at 2 µM (P70S6K; 2 μM) was 87.3% and the inhibition at 0.05 µM (RSK1; 50 nM) was 13%. It also gave an inhibition at 2 µM (RSK1; 2 μM) of 82%, an inhibition at 0.05 µM (BRAF; 50 nM) of 12.9% and an inhibition at 2 µM (BRAF; 2 μM) of 35.1%. The inhibition at 0.05 µM (PKCδ; 50 nM, 10 μM ATP) was 12.6%, the inhibition at 2 µM (PKCδ; 2 μM, 10 μM ATP) was 81.1% and the IC50 (PKCδ; 10 μM ATP, read-out: PKCδ IC50) was 184 nM. For the same compound, the “PKCd Differential (as compared to PKG1a)” value (PKCδ; IC50 (kinase)/IC50 (PKG1a)) was 16.77, the IC50 (PKCδ; Table 4 dose-response, read-out: PKCd IC50 Values) was 191 nM and the inhibition at 0.05 µM (RSK2; 50 nM) was 12.3%. The inhibition at 2 µM (RSK2; 2 μM) was 66%, the IC50 (ERBB2/HER2) was 18000 to 65000 nM and the IC50 (ERBB2/HER2; read-out: ERBB2/HER2 IC50, 10 μM ATP) was 26400 nM. The IC50 (FLT1/VEGFR1) was 18000 to 65000 nM, the IC50 (FLT1/VEGFR1; read-out: FLT1/VEGFR1 IC50, 10 μM ATP) was 18800 nM and the IC50 (PKCα) was 800 to 6600 nM. For the same compound, the IC50 (PKCα; read-out: PKCα IC50, 10 μM ATP) was 1320 nM.

— patent US20260184713A1, “KINASE INHIBITORS” (The United States of America, as represented by the …, priority 2022, published 2026)
